Measurements as given in ChEMBL document CHEMBL1201862, “PubChem BioAssay data set” (2004).
Each block holds one molecule with its values, some of them ahead of it. Calls of active or inactive are those of the source.

Key:
[1] = Trypanosoma cruzi growth suppression in host cells – NIH3T3 host cells, beta-gal luminescence, confirmation (AID 2044); format: functional, cell-based;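 further: intracellular parasites grown in NIH/3T3 mouse fibroblasts as host cells; luminescent beta-galactosidase reporter signal from transgenic T. cruzi replicating inside host cells; inhibitors lower the luminescence signal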
[2] = NIH3T3 cell viability loss – ATP luminescence, mouse fibroblasts, counter-screen, dose response (AID 2010); format: functional, cell-based;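 further: cells exposed to compound for about 90 hours before reading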
Prothrombin = Prothrombin (Homo sapiens, UniProt P00734); experiment: Thrombin 1536 HTS Dose Response Confirmation. [Related pubchem assays: 1046 (Thrombin 1536 HTS; hits were confirmed in this assay)]; format: functional
[3] = molecular target: Luciferin 4-monooxygenase (Photinus pyralis, UniProt P08659); experiment: Counter Screen for Luciferase-based Assay Positives. [Related pubchem assays: 620, 618, 411 ]
Chain of Luciferin 4-monooxygenase (P08659 whole entry): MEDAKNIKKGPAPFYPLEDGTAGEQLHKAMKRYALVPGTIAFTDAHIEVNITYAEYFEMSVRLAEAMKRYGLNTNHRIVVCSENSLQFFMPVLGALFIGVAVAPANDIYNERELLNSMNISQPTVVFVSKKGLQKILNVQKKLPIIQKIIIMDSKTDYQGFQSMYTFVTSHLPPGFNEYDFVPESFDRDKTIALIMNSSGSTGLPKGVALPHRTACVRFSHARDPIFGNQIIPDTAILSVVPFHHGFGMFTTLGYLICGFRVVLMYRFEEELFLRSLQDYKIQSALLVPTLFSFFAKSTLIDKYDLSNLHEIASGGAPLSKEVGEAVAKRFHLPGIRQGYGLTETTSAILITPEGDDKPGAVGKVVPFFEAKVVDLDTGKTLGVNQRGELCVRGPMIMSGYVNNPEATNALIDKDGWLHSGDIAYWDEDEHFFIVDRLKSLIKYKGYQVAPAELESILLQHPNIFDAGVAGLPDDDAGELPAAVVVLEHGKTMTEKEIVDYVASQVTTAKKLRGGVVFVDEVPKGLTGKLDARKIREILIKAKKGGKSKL

HT-1080 = experiment: HT1080 cell viability loss – fluorescence readout (AID 620); format: functional, cell-based; details: Homo sapiens
[4] = molecular target: T1, Mannose-6-phosphate isomerase (Homo sapiens, UniProt P34949); experiment: MPI inhibition at elevated mannose 6-phosphate – biochemical, fluorescence intensity, high mannose 6-phosphate, primary screen (AID 1220)
T1 sequence (P34949 whole entry): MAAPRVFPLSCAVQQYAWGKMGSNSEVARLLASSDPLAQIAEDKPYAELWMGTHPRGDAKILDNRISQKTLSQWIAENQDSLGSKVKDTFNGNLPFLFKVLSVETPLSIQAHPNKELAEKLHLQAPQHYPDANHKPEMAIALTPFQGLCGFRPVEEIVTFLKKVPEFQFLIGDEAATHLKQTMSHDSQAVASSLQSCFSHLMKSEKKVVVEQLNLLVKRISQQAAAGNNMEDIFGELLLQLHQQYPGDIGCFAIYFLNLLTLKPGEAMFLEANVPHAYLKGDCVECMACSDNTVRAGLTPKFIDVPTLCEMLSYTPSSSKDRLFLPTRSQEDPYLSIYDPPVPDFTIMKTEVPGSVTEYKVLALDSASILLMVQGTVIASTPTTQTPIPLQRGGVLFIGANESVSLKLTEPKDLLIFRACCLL

[5] = molecular target: T2, Histone-lysine N-methyltransferase NSD2 (Homo sapiens, UniProt O96028); format: biochemical
T2 sequence (O96028 whole entry): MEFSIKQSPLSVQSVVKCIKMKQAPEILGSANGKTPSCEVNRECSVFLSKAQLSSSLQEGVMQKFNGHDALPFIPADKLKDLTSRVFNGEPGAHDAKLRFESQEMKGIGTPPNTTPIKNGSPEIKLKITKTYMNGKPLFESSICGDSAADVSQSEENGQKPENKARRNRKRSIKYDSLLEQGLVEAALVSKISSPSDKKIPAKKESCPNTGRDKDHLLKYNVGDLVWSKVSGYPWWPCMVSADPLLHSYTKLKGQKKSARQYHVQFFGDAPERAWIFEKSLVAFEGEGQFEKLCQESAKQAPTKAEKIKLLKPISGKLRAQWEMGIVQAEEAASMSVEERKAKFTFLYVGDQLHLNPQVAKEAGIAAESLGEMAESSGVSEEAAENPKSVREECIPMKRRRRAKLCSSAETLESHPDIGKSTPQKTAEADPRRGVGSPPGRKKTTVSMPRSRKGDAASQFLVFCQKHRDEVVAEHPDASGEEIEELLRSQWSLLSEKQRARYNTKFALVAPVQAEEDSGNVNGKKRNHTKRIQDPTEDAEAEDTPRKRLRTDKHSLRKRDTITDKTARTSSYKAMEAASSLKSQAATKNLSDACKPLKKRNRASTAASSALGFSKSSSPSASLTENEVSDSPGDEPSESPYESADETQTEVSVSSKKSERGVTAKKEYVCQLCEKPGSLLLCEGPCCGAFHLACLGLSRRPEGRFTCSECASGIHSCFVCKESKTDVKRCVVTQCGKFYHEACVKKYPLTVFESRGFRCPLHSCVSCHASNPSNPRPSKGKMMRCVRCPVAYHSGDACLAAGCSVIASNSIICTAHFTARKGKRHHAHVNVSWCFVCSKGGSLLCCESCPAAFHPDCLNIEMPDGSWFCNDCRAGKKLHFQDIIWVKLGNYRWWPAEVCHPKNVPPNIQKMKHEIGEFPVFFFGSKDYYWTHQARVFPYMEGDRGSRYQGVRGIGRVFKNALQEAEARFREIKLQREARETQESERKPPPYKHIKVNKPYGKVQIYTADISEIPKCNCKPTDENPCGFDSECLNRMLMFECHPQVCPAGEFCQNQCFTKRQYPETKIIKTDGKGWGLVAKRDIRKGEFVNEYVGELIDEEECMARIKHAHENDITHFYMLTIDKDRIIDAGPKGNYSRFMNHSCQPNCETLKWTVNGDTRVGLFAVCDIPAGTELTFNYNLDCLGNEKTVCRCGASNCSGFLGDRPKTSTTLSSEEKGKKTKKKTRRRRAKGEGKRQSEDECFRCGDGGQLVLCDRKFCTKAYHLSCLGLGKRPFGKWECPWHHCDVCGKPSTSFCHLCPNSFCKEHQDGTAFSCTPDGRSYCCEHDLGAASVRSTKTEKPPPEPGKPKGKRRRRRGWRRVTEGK

Cytochrome P450 2C19 = Cytochrome P450 2C19 (Homo sapiens, UniProt P33261); experiment: Cytochrome panel assay with activity outcomes. Panel member name: p450-cyp2c19 Compounds with AC50 equal or less than 10 uM are considered active; format: functional; details: read-out: AC50
Chain of Cytochrome P450 2C19 (P33261 whole entry): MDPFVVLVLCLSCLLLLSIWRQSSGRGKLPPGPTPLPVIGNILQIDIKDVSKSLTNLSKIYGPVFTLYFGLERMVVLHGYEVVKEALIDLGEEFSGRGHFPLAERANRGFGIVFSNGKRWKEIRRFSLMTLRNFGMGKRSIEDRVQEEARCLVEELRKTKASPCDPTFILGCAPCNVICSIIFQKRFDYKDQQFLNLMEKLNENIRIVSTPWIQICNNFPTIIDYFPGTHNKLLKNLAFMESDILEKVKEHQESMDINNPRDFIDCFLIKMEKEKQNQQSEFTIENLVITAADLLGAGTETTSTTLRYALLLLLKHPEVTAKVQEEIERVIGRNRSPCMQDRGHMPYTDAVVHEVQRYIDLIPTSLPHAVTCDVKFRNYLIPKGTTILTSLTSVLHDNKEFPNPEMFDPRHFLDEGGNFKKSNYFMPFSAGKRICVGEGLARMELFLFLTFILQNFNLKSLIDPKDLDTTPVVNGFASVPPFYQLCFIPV

Cytochrome P450 2C9 = Cytochrome P450 2C9 (Homo sapiens, UniProt P11712)
Chain of Cytochrome P450 2C9 (P11712 whole entry): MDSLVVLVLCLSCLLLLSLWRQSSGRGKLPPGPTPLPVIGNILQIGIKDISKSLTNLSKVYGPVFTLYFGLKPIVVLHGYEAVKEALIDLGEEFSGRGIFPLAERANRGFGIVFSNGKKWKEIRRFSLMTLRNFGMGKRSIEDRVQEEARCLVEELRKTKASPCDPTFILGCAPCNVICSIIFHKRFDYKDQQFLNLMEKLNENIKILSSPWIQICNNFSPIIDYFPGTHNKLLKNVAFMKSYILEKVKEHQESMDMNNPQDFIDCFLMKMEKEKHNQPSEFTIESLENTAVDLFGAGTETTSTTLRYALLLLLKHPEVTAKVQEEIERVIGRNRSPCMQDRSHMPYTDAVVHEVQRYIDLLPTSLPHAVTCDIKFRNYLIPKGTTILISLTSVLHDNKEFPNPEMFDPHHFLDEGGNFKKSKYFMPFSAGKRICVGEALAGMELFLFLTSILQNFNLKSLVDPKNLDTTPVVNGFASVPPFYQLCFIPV

Coagulation factor XII = molecular target: T3, Coagulation factor XII (Homo sapiens, UniProt P00748); format: functional;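 further: activated factor XIIa alpha cleaving a fluorogenic AMC peptide substrate; inhibitor potency from loss of enzyme activity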
T3 sequence (P00748 whole entry): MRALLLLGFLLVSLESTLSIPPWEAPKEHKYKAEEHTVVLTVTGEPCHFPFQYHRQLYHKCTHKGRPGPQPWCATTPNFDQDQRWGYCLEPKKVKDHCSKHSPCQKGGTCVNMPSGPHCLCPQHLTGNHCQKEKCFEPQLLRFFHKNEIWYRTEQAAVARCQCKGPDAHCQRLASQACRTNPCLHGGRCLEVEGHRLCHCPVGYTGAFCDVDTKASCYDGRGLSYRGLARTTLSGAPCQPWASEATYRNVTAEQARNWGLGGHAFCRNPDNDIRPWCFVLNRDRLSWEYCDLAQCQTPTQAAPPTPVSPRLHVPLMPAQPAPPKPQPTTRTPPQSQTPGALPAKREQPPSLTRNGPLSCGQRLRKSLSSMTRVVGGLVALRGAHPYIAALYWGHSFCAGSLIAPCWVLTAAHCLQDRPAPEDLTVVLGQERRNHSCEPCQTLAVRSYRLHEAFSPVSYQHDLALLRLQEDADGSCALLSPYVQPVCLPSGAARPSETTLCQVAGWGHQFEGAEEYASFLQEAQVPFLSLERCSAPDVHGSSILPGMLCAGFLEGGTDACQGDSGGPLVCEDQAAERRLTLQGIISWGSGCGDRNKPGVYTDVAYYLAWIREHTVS

[6] = molecular target: Glyceraldehyde-3-phosphate dehydrogenase (Homo sapiens, UniProt P04406)
Chain of Glyceraldehyde-3-phosphate dehydrogenase (P04406 whole entry): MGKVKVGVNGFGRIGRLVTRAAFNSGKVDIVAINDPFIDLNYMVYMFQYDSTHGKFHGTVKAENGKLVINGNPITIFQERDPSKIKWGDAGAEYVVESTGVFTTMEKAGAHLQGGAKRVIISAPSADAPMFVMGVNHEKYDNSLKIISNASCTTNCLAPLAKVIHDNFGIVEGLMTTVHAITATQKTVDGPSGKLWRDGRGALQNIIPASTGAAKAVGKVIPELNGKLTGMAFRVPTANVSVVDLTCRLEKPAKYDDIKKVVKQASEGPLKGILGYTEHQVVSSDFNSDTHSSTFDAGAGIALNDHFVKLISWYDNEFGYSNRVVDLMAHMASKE

[7] = molecular target: T4, Short transient receptor potential channel 4 (Mus musculus, UniProt Q9QUQ5); experiment: block of DAMGO-driven TRPC4 calcium entry – cell-based, HEK293 TRPC4/mu-opioid, Fluo-4 calcium, dose response (AID 434942); format: functional;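 further: potency of inhibitors blocking the TRPC4 calcium response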
T4 sequence (Q9QUQ5 whole entry): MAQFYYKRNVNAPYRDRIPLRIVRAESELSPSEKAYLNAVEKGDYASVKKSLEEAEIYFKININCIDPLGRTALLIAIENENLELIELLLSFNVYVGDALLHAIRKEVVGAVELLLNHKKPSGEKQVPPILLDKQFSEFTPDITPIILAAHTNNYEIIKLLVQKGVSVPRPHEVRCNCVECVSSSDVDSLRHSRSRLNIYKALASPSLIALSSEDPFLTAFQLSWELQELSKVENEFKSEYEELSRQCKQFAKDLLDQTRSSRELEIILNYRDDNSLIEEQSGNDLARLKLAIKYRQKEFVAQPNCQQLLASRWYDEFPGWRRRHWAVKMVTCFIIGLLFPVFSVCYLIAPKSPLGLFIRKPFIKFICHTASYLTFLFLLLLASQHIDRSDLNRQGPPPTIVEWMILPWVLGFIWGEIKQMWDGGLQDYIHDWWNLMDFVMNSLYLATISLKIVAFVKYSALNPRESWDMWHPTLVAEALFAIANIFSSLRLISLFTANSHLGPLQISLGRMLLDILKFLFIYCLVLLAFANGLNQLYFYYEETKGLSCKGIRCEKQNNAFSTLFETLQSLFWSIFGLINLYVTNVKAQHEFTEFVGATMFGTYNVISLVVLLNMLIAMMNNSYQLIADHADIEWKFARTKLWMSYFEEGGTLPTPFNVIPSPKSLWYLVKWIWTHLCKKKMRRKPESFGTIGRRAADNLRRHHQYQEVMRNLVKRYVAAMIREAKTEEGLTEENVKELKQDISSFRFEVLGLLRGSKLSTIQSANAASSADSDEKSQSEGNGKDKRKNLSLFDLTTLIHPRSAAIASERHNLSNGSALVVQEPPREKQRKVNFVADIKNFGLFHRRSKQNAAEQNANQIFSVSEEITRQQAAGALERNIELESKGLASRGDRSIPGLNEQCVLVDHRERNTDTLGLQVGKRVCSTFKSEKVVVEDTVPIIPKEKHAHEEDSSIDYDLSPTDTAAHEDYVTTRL

[8] = molecular target: T4, Short transient receptor potential channel 4; experiment: calcium entry via TRPC4 opening agents – cell-based, HEK293 TRPC4/mu-opioid, Fluo-4 calcium, dose response (AID 434937); format: functional
[9] = molecular target: T5, Calpain-2 catalytic subunit (Sus scrofa, UniProt P43367); experiment: m-calpain protease blockers, concentration series – biochemical, fluorogenic peptide substrate, dose response (AID 1420); format: functional
T5 sequence (P43367 whole entry): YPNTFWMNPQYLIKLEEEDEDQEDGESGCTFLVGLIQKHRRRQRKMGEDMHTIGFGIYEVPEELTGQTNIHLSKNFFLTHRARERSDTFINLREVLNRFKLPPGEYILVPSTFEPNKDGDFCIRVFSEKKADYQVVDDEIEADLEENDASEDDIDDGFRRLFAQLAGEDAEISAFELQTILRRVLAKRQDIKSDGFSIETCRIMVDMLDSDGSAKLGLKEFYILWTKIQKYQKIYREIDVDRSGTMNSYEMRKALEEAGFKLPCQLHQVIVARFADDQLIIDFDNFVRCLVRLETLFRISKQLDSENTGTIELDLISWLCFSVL

SMILES: OC1CCN(Cc2ccc(OCc3ccccc3)cc2)CC1
EC50 [1]: < 0.1 µM (active)
EC50 [2]: > 60 µM (not active)
EC50 (cells): 0.207 µM (active)

IC50 (Prothrombin): > 50 µM (not active)
SMILES: COc1cccc(C(=O)NNC(=O)Cc2ccc([N+](=O)[O-])cc2)c1

SMILES: O=C(NCC(c1cccnc1)N1CCN(c2ccc(F)cc2)CC1)OCc1ccccc1 (stereo unspecified)
EC50 [1]: < 0.1 µM (active)
EC50 [2]: > 60 µM (not active)
EC50 (cells): 0.089 µM (active)

SMILES: CCOc1ccc(OCc2ccc(C(=O)O)o2)cc1
EC50 [3]: 0.36 µM (active)
EC50 (HT-1080): > 50 µM (not active)

SMILES: Cc1ccc(CNc2nc3ccccc3s2)s1
EC50 [3]: 14.4 µM (active)
EC50 (HT-1080): > 50 µM (not active)

IC50 (Prothrombin): > 50 µM (not active)
SMILES: O=C(CN1C(=O)CSc2ccccc21)N1CCc2ccccc21

IC50 (Prothrombin): > 50 µM (not active)
SMILES: Cc1ccc(NC(=O)CN(C)C(=O)CCC(=O)c2cccs2)cc1

IC50 [4]: > 50 µM (not active)
AC50 [5]: 3.81 µM (active)
SMILES: Cn1cc2ccc(N)cc2n1

IC50 (Prothrombin): 0.0293 µM (active)
AC50 (Cytochrome P450 2C19): 1.58 µM (inconclusive)
AC50 (Cytochrome P450 2C9): 0.631 µM (inconclusive)
SMILES: O=C(c1ccc([N+](=O)[O-])cc1)n1nc(-c2ccccc2)nc1NCc1ccccc1

IC50 (Prothrombin): 3.39 µM (active)
SMILES: CC(=O)n1nc(-c2ccccc2)nc1NCc1ccc(N(C)C)cc1

IC50 (Prothrombin): 0.00551 µM (active)
SMILES: CSc1nc(-c2ccco2)nn1C(=O)CCc1ccccc1

IC50 (Prothrombin): 0.0965 µM (active)
SMILES: CC(=O)n1nc(-c2ccccc2)nc1NCc1cccs1

IC50 (Prothrombin): > 50 µM (not active)
IC50 (Coagulation factor XII): > 50 µM (inactive)
SMILES: NS(=O)(=O)c1ccc(CCNC(=O)Cc2ccccc2[N+](=O)[O-])cc1

SMILES: O=C(O)c1cccc(C(=O)Nc2cccc(NC(=O)C3CCCO3)c2)c1 (stereo unspecified)
EC50 [3]: 56.3 µM (active)
IC50 [6]: > 100 µM (not active)
EC50 (HT-1080): > 50 µM (not active)

SMILES: CN(C)CCCN(C(=O)c1ccc(S(=O)(=O)N(C)C)cc1)c1nc2ccc(F)cc2s1
EC50 [1]: < 0.1 µM (active)
EC50 [2]: > 60 µM (not active)
EC50 [7]: 5.96 µM (active)
EC50 [8]: 9.44 µM (active)
EC50 (cells): 0.012 µM (active)

IC50 (Prothrombin): > 50 µM (not active)
IC50 [9]: 9.51 µM (not active)
SMILES: CC(C)c1ccc(-c2noc(C3CCCN(C(=O)c4ccc(F)cc4F)C3)n2)cc1 (stereo unspecified)

SMILES: CC(C)c1ccc2oc(-c3ccc(N)cc3)nc2c1
EC50 [3]: 12.3 µM (active)
EC50 (HT-1080): > 50 µM (not active)

SMILES: O=C(Nc1ccccc1)C12CC3CC(C1)CC(n1cnc([N+](=O)[O-])n1)(C3)C2
EC50 [1]: < 0.1 µM (active)
EC50 [2]: > 60 µM (not active)
EC50 (cells): 0.06 µM (active)

SMILES: Cc1ccc2c(c1)C1CN(C)CCC1N2C(=O)c1ccc(Cl)c(S(=O)(=O)N2CCOCC2)c1 (stereo unspecified)
EC50 [1]: < 0.1 µM (active)
EC50 [2]: > 60 µM (not active)
EC50 (cells): 0.199 µM (active)
